{"source": "paper PMC9743094", "about": "“Synthesis and Evaluation of Polymyxins Bearing Reductively Labile Disulfide-Linked Lipids” (Journal of Medicinal Chemistry, 2022)", "key": {"P. aeruginosa 2018-007": {"system": "P. aeruginosa 2018-007", "type": "cell-based", "details": "resistance indicator: IMP-7; broth microdilution, CAMHB", "protocol": "(§1) Minimum inhibitory concentrations (MICs) on relevant Gram-negative bacteria were determined by broth microdilution, in accordance with CLSI guidelines. Indicated bacteria were taken from glycerol stocks and incubated overnight on blood agar at 37 °C. Well-isolated colonies were taken, suspended in TSB (5 mL), and grown to an OD600 of 0.5. Compounds to be tested were dissolved in DMSO (6.4 mg/mL), diluted in cation-adjusted Mueller–Hinton Broth (CAMHB) (12.5 and 20 μg/mL Mg^2+ and Ca^2+, respectively), and diluted serially on polypropylene microtiter plates. To the diluted compounds (50 μL per well) was added 50 μL of relevant bacterial suspension, to yield a final concentration of 10^6 CFU/mL. Plates were covered by adhesive gas-permeable membranes and incubated at 37 °C. MIC was read out as the lowest concentration that inhibited visual bacterial growth. Shown values are consistent results from at least duplicate experiments.\n(§2) Bacterial strains used for MIC assays and extended MIC assessment\n(§3) Strains: The following strains were obtained from BEI Resources, NIAID, NIH: E. Coli M0072, strain\n(§4) Table S2. […] Values are given in μg/mL.\n(§5) Species Strain ID Resistance Polymyxin B 18b 23a 24a"}, "E. coli JS136": {"system": "E. coli JS136", "type": "cell-based", "details": "resistance indicator: OXA-48; broth microdilution, CAMHB", "protocol": "as §1, §2, §3, §4, §5"}, "P. aeruginosa 2251": {"system": "P. aeruginosa 2251", "type": "cell-based", "details": "resistance indicator: VIM-2; broth microdilution, CAMHB", "protocol": "as §1, §2, §3, §4, §5"}, "A. baumannii NRZ-00687": {"system": "A. baumannii NRZ-00687", "type": "cell-based", "details": "resistance indicator: NDM-2; broth microdilution, CAMHB", "protocol": "as §1, §2, §3, §4, §5"}, "E. coli M0072": {"system": "E. coli M0072", "type": "cell-based", "details": "resistance indicator: Multiple; broth microdilution, CAMHB", "protocol": "as §1, §2, §3, §4, §5"}, "A. baumannii RUH-134": {"system": "A. baumannii RUH-134", "type": "cell-based", "details": "resistance indicator: Multiple; broth microdilution, CAMHB", "protocol": "as §1, §2, §3, §4, §5"}, "P. aeruginosa ATCC 10145": {"system": "P. aeruginosa ATCC 10145", "type": "cell-based", "details": "broth microdilution, CAMHB", "protocol": "as §1, §2, §3, §4, §5"}, "A. baumannii BAA-747": {"system": "A. baumannii BAA-747", "type": "cell-based", "details": "broth microdilution, CAMHB", "protocol": "as §1, §2, §3, §4, §5"}, "K. pneumoniae ATCC 29665": {"system": "K. pneumoniae ATCC 29665", "type": "cell-based", "details": "broth microdilution, CAMHB", "protocol": "as §1, §2, §3, §4, §5"}, "E. coli 1793": {"system": "E. coli 1793", "type": "cell-based", "details": "resistance indicator: NDM-1; broth microdilution, CAMHB", "protocol": "as §1, §2, §3, §4, §5"}, "K. pneumoniae KP1.53": {"system": "K. pneumoniae KP1.53", "type": "cell-based", "details": "resistance indicator: MDR; broth microdilution, CAMHB", "protocol": "as §1, §2, §3, §4, §5"}, "P. aeruginosa M120": {"system": "P. aeruginosa M120", "type": "cell-based", "details": "resistance indicator: OXA-50, blaPAO; broth microdilution, CAMHB", "protocol": "as §1, §2, §3, §4, §5"}, "K. pneumoniae RC0045": {"system": "K. pneumoniae RC0045", "type": "cell-based", "details": "resistance indicator: OXA-48; broth microdilution, CAMHB", "protocol": "as §1, §2, §3, §4, §5"}, "[1]": {"system": "differentiated conditionally immortalized PTECs (ciPTECs, OAT-1)", "assay": "ciPTEC toxicity assay (PrestoBlue)", "type": "cell-based, human", "details": "37 °C", "method_in_brief": "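ciPTEC (OAT-1) cells were differentiated 24 h at 33 °C then 6 days at 37 °C before 24 h exposure at 37 °C to serially diluted compounds in serum-free medium. Viability by 10% PrestoBlue fluorescence (530/590 nm), relative to untreated cells. TC50 from nonlinear regression with bottom fixed at 0; triplicates.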"}, "[2]": {"system": "Red blood cells from defibrinated sheep blood", "assay": "Hemolysis assay", "type": "cell-based", "details": "128 μg/mL, 1 h, 37 °C, absorbance 415 nm, normalized to 0.1% Triton-X100, triplicates", "protocol": "Red blood cells from defibrinated sheep blood (Thermo Fisher Scientific) were centrifuged (400g for 15 min at 4 °C) and washed with PBS containing 0.002% Tween20 four times. The red blood cells were normalized to obtain an absorbance value between 2.5 and 3.0 at 415 nm to stay in the linear range of the assay with maximum sensitivity. A serial dilution of the compounds (128–4 μg/mL, 75 μL) was prepared in a 96-well plate. Each plate contained a positive control (0.1% Triton-X final concentration, 75 μL) and a negative control (buffer, 75 μL). The normalized blood cells (75 μL) were added, and the plates were incubated at 37 °C for 1 h while shaking at 500 rpm. After incubation, the plates were centrifuged (800g for 5 min at RT) and 25 μL of the supernatant was transferred to a second plate, containing 100 μL of PBS in each well. Absorbance was read-out at 415 nm. Values were corrected for background (negative control) and transformed to a percentage relative to the positive control. Results shown (Supporting Information Figure S2) are based on triplicate data.\nStability assessment in presence of glutathione\nFigure S1. Compound stability upon incubation with low (5 μM) or high (5 mM) glutathione (GSH) concentration.\nCompounds were incubated in PBS with the indicated concentration glutathione for 24 hours. Indicated data points are\nbased upon integration of HPLC UV data.\nFigure S2. […]"}, "E. coli (ATCC 25922)": {"system": "E. coli (ATCC 25922)", "type": "cell-based", "details": "broth microdilution, CLSI, CAMHB, 10^6 CFU/mL, 37 °C, visual growth; triplicate experiments", "method_in_brief": "(§6)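 Broth microdilution per CLSI in cation-adjusted Mueller–Hinton Broth (12.5 μg/mL Mg^2+, 20 μg/mL Ca^2+), inoculum 10^6 CFU/mL final, 37 °C. MIC taken as lowest concentration with no visible growth, consistent across at least duplicate experiments.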"}, "[3]": {"system": "A. baumannii (ATCC 19606)", "type": "cell-based", "details": "broth microdilution, CLSI, CAMHB, 10^6 CFU/mL, 37 °C, visual growth; triplicate experiments", "method_in_brief": "as §6"}, "[4]": {"system": "P. aeruginosa (ATCC 27853)", "type": "cell-based", "details": "broth microdilution, CLSI, CAMHB, 10^6 CFU/mL, 37 °C, visual growth; triplicate experiments", "method_in_brief": "as §6"}, "[5]": {"system": "K. pneumoniae (ATCC 13883)", "type": "cell-based", "details": "broth microdilution, CLSI, CAMHB, 10^6 CFU/mL, 37 °C, visual growth; triplicate experiments", "method_in_brief": "as §6"}, "A. baumanii (ATCC 17961)": {"system": "A. baumanii (ATCC 17961)", "type": "cell-based", "details": "broth microdilution, CAMHB", "protocol": "as §1\n(§7) Table S3. MIC values [µg/mL] and relative toxicity values for disulfide containing polymyxin derivative 18b and\n(§8) non-disulfide containing analogue 45. […]"}, "P. aeruginosa (PAO1)": {"system": "P. aeruginosa (PAO1)", "type": "cell-based", "details": "broth microdilution, CAMHB", "protocol": "as §1, §7, §8"}}, "data": [{"substance": "Polymyxin B [reference compound]", "values": [{"measurement": "MIC P. aeruginosa 2018-007", "setting": "P. aeruginosa 2018-007", "result": 2, "unit": "mg/L"}, {"measurement": "MIC E. coli JS136", "setting": "E. coli JS136", "result": 0.125, "unit": "mg/L"}, {"measurement": "MIC P. aeruginosa 2251", "setting": "P. aeruginosa 2251", "result": 1, "unit": "mg/L"}, {"measurement": "MIC A. baumannii NRZ-00687", "setting": "A. baumannii NRZ-00687", "result": 0.25, "unit": "mg/L"}, {"measurement": "MIC E. coli M0072", "setting": "E. coli M0072", "result": 0.125, "unit": "mg/L"}, {"measurement": "MIC A. baumannii RUH-134", "setting": "A. baumannii RUH-134", "result": 0.25, "unit": "mg/L"}, {"measurement": "MIC P. aeruginosa ATCC 10145", "setting": "P. aeruginosa ATCC 10145", "result": 1, "unit": "mg/L"}, {"measurement": "MIC A. baumannii BAA-747", "setting": "A. baumannii BAA-747", "result": 0.25, "unit": "mg/L"}, {"measurement": "MIC K. pneumoniae ATCC 29665", "setting": "K. pneumoniae ATCC 29665", "result": 0.25, "unit": "mg/L"}, {"measurement": "MIC E. coli 1793", "setting": "E. coli 1793", "result": 0.063, "unit": "mg/L"}, {"measurement": "MIC K. pneumoniae KP1.53", "setting": "K. pneumoniae KP1.53", "result": 0.5, "unit": "mg/L"}, {"measurement": "MIC P. aeruginosa M120", "setting": "P. aeruginosa M120", "result": 1, "unit": "mg/L"}, {"measurement": "MIC K. pneumoniae RC0045", "setting": "K. pneumoniae RC0045", "result": 0.25, "unit": "mg/L"}, {"measurement": "ciPTEC Toxicity Index (relative to polymyxin B)", "setting": "[1]; TC50 expressed relative to polymyxin B, 24 h incubation, serum-free medium, PrestoBlue fluorescence, nonlinear regression, triplicate", "result": 1.0}, {"measurement": "TC50, Day 1", "setting": "[1]; cell batch/analysis Day 1, ciPTEC, 24 h, PrestoBlue, non-linear regression with bottom constraint at 0, triplicates", "result": 80, "unit": "µM"}, {"measurement": "TC50, Day 2", "setting": "[1]; cell batch/analysis Day 2, ciPTEC, 24 h, PrestoBlue, non-linear regression with bottom constraint at 0, triplicates", "result": 41, "unit": "µM"}, {"measurement": "percent hemolysis", "setting": "[2]", "result": "below 5%"}, {"measurement": "MIC E. coli (ATCC 25922)", "setting": "E. coli (ATCC 25922)", "result": 1, "unit": "mg/L"}, {"measurement": "MIC A. baumannii (ATCC 19606)", "setting": "[3]", "result": 0.25, "unit": "mg/L"}, {"measurement": "MIC P. aeruginosa (ATCC 27853)", "setting": "[4]", "result": 1, "unit": "mg/L"}, {"measurement": "MIC K. pneumoniae (ATCC 13883)", "setting": "[5]", "result": 0.25, "unit": "mg/L"}, {"measurement": "MIC A. baumanii (ATCC 17961)", "setting": "A. baumanii (ATCC 17961)", "result": 0.25, "unit": "mg/L"}, {"measurement": "MIC P. aeruginosa (PAO1)", "setting": "P. aeruginosa (PAO1)", "result": 0.5, "unit": "mg/L"}]}]}
